Active and inactive are the calls of the source. No cut-off for these calls is given here.
Key:
[1] = biological target: T1, Histone deacetylase 8 (Homo sapiens, UniProt Q9BY41); experiment: Inhibition of human full-length C-terminal His-tagged HDAC8 expressed in baculovirus infected Sf9 insect cell using fluorogenic HDAC class 2a substrate measured after 30 mins by fluorimetry
T1 sequence (Q9BY41 whole entry): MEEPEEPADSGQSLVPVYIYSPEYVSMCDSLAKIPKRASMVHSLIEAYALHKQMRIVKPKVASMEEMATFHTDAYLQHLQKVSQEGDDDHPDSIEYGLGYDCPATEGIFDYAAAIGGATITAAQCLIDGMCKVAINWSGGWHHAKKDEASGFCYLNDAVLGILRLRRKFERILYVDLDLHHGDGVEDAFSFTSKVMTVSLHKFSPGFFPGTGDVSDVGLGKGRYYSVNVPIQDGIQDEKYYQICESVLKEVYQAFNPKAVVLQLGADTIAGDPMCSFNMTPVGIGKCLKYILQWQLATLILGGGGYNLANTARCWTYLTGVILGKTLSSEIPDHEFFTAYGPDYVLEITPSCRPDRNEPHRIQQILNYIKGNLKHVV

[2] = biological target: T2, Protein deacetylase HDAC6 (Homo sapiens, UniProt Q9UBN7); experiment: Inhibition of recombinant human N-terminal GST-tagged HDAC6 (1 to 1215 residues) expressed in Sf9 insect cells using fluorogenic HDAC substrate 3 measured after 30 mins by fluorimetry
T2 sequence (Q9UBN7 whole entry): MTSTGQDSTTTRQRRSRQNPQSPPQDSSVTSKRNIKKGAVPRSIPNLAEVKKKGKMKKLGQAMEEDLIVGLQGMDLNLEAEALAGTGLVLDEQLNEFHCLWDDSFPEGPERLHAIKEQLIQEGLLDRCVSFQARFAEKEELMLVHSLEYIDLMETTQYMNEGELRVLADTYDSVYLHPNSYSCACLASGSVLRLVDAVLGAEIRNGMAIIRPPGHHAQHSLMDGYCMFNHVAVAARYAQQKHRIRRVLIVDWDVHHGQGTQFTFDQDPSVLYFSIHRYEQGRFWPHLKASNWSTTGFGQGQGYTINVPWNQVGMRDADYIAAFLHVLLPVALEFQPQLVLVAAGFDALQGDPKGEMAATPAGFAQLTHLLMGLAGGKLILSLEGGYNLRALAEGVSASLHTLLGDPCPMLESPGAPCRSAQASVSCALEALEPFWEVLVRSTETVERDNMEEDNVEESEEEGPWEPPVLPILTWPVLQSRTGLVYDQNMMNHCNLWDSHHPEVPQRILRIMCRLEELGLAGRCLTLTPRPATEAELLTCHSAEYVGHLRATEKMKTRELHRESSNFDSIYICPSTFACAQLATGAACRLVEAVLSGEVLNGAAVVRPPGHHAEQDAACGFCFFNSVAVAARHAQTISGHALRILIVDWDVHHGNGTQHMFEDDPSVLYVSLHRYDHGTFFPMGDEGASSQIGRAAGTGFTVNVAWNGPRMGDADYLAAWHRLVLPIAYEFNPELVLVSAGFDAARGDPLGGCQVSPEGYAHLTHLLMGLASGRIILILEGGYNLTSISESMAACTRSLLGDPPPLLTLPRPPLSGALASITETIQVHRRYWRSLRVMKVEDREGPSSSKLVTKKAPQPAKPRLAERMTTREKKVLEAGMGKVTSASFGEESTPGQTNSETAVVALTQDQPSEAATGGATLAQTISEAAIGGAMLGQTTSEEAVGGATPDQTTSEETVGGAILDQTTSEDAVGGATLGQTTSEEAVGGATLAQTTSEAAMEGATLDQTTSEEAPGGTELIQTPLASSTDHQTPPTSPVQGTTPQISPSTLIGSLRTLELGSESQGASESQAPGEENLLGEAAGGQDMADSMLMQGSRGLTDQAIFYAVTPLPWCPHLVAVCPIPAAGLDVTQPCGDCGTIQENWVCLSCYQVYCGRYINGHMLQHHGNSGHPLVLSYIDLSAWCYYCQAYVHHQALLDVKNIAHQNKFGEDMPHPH

[3] = biological target: Histone deacetylase 1 (Homo sapiens, UniProt Q13547); experiment: Inhibition of recombinant human full-length C-terminal Flag-His6-tagged HDAC1 (1 to 482 residues) expressed in Sf9 insect cells using fluorogenic HDAC substrate measured after 30 mins by fluorimetry
Sequence of Histone deacetylase 1 (Q13547 whole entry, the tested form may be a part): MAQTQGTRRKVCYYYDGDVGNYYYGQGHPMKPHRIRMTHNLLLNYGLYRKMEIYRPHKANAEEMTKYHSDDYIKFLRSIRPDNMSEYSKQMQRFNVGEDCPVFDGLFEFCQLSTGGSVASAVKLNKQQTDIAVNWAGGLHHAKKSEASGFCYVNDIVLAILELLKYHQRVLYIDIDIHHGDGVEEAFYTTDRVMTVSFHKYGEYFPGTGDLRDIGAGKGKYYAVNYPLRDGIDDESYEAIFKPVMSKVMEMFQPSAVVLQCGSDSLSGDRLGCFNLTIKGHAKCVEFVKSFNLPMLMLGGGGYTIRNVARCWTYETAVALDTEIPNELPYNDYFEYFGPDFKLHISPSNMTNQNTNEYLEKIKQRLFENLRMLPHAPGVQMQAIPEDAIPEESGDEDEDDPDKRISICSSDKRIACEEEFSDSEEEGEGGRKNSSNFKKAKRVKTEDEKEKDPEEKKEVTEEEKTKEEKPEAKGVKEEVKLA

[4] = biological target: Histone deacetylase (Homo sapiens) (UniProt Q13547+O15379+Q9UBN7+Q92769+Q9UQL6+Q8WUI4+Q9BY41+Q96DB2+P56524+Q9UKV0+Q969S8); experiment: Potency index, ratio of MS-275 IC50 to test compound IC50 for inhibition of HDAC in human HeLa cell nuclear extracts using color de Lys as substrate
[5] = tested on: MDA-MB-231; experiment: Antiproliferative activity against human MDA-MB-231 cells measured after 48 hrs by MTT assay; assay type: functional, cell-based; conditions: MDA-MB-231, 48 h
[6] = tested on: HCT-116; experiment: Induction of cell morphological changes in human HCT-116 cells assessed as nuclear fragmentation at 0.5 to 5 uM measured after 24 hrs by Hoechst 33258 staining based fluorescence microscopy; assay type: functional; conditions: dose 0.5-5 µM
[7] = tested on: HCT-116; experiment: Induction of apoptosis in human HCT-116 cells assessed as late apoptotic cells at 0.5 uM measured after 24 hrs by Annexin V-FITC/propidium iodide staining based flow cytometry (reference value: 3.43%); assay type: functional
[8] = tested on: HCT-116; experiment: Induction of apoptosis in human HCT-116 cells assessed as necrotic cells at 0.5 uM measured after 24 hrs by Annexin V-FITC/propidium iodide staining based flow cytometry (reference value: 7.39%); assay type: functional
[9] = tested on: HCT-116; experiment: Induction of apoptosis in human HCT-116 cells assessed as necrotic cells at 1 uM measured after 24 hrs by Annexin V-FITC/propidium iodide staining based flow cytometry (reference value: 7.39%); assay type: functional
[10] = tested on: HCT-116; experiment: Induction of apoptosis in human HCT-116 cells assessed as viable cells at 5 uM measured after 24 hrs by Annexin V-FITC/propidium iodide staining based flow cytometry (reference value: 87.3%); assay type: functional; conditions: read-out: Activity
[11] = tested on: HCT-116; experiment: Induction of apoptosis in human HCT-116 cells assessed as late apoptotic cells at 5 uM measured after 24 hrs by Annexin V-FITC/propidium iodide staining based flow cytometry (reference value: 3.43%); assay type: functional
[12] = tested on: HCT-116; experiment: Cell cycle arrest in human HCT-116 cells assessed as accumulation of cells at G2/M phase at 10 uM measured after 24 hrs by propidium iodide staining based flow cytometry (reference value: 22.74%); assay type: functional
[13] = tested on: HCT-116; experiment: Cell cycle arrest in human HCT-116 cells assessed as accumulation of cells at G0/G1 phase at 10 uM measured after 6 hrs by propidium iodide staining based flow cytometry (reference value: 58.05%); assay type: functional
[14] = tested on: HCT-116; experiment: Cell cycle arrest in human HCT-116 cells assessed as accumulation of cells at G2/M phase at 10 uM measured after 12 hrs by propidium iodide staining based flow cytometry (reference value: 22.74%); assay type: functional
[15] = tested on: HCT-116; experiment: Cell cycle arrest in human HCT-116 cells assessed as up regulation of p21 expression measured after 24 hrs by Western blot analysis; assay type: functional, cell-based; conditions: dose 0.1-10 µM, DDE = dose-dependent effect
[16] = tested on: HCT-116; experiment: Cell cycle arrest in human HCT-116 cells assessed as up regulation of Bax expression measured after 24 hrs by Western blot analysis; assay type: functional, cell-based; conditions: dose 0.1-10 µM, DDE = dose-dependent effect

IC50 [1]: 948 nM | IC50 [3]: 55.1 nM | Ratio IC50 [4]: 19 | IC50 [5]: 380 nM
Compound: CCCCNc1nc(Cl)nc2c1ncn2Cc1ccc(C(=O)Nc2ccccc2N)cc1
IC50 [2]: 34200 nM | Activity [6]: Active | Activity [7]: 2.12% | Activity [8]: 0.442% | Activity [9]: 1.2% | viability at 5 µM [10]: 18.4% | Activity [11]: 10.1% | Activity [12]: 11.15% | Activity [13]: 65.62% | Activity [14]: 18.82% | Activity [15]: Dde | Activity [16]: Dde
